Series [1] addresses T1, Cytochrome P450 11B1, mitochondrial (Homo sapiens, UniProt P15538).
T1 sequence (P15538 whole entry): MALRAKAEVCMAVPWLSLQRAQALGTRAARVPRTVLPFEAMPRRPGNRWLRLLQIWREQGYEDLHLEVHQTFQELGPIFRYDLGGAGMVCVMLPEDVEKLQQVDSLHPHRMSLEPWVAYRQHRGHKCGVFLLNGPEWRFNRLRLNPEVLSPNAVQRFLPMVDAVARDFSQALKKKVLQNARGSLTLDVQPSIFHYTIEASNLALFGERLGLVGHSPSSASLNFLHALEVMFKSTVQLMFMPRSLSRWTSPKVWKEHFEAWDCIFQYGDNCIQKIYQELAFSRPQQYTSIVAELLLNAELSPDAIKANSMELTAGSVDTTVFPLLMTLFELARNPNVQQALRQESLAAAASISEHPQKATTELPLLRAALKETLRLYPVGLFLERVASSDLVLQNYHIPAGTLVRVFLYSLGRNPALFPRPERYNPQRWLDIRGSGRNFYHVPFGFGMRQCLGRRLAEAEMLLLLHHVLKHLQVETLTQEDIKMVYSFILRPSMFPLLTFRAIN
The experiment in a line: (§1) Inhibition Assay: The expression plasmids contains the ORF for either human/cyno CYP11B1 or CYP11B2 under the control of a suitable promoter (CMV-promoter) and a suitable resistance marker (neomycin). Using standard techniques the expression plasmid is transfected into G-402 cells and these cells are then selected for expressing the given resistance markers. Individual cell-clones are then selected and assessed for displaying the desired enzymatic activity using 11-Deoxycorticosterone (Cyp11B2) or 11-Deoxycortisol (Cyp11B1) as a substrate.G-402 cells expressing CYP11 constructs were established as described above and maintained in McCoy's 5a Medium Modified, ATCC Catalog No. 30-2007 containing 10% FCS and 400 μg/ml G418 (Geneticin) at 37° C. under an atmosphere of 5% CO2/95% air. Cellular enzyme assays were performed in DMEM/F12 medium containing 2.5% charcoal treated FCS and appropriate concentration of substrate (0.3-10 uM 11-Deoxycorticosterone, 11-Deoxycortisol or Corticosterone). For assaying enzymatic activity, cells were plated onto 96 well plates and incubated for 16 h. An aliquot of the supernatant is then transferred and analyzed for the concentration of the expected product (Aldosterone for CYP11B2; Cortisol for CYP11B1). The concentrations of these steroids can be determined using HTRF assays from CisBio analyzing either Aldosterone or Cortisol. In general terms: TR-FRET usually uses a lanthanide donor and a delayed reading to cut background.

Series [2] concerns the target T2, Cytochrome P450 11B2, mitochondrial (Homo sapiens, UniProt P19099).
T2 sequence (P19099 whole entry): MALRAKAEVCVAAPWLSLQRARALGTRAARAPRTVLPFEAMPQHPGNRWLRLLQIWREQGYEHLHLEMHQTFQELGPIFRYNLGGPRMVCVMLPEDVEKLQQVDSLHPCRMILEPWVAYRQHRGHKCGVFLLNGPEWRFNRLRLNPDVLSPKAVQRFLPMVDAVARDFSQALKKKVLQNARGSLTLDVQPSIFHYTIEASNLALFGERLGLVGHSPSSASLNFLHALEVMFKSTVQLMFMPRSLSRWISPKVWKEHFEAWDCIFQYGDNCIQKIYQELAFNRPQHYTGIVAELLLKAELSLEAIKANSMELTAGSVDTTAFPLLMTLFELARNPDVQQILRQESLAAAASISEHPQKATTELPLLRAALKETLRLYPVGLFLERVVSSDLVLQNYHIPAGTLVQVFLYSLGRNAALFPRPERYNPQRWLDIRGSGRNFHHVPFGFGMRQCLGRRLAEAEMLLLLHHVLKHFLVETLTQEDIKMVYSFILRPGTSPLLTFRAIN
The series is described as §1.

Usually EC50 stands for the concentration needed to bring the measured effect to its halfway point. A low value points to greater potency. `CC(=O)N1CCC(C(C)c2c[nH]nc2-c2ccc3c(c2F)CCC(=O)N3C)CC1` (racemic): a half-maximal effect in series [1] (EC50) was put at 0.049 nM.
Consider `CC(=O)N1CCC([C@H](C)c2c[nH]nc2-c2ccc3c(c2F)CCC(=O)N3C)CC1` (single isomer, unassigned), for which, in series [2], the EC50 is reported as 0.064 nM. This lies in the picomolar range.
For the molecule `CC(=O)N1CCC(C(C)c2c[nH]nc2-c2cc3c(cc2F)N(C)C(=O)CC3)CC1` (racemic), the midpoint of the response in series [1], the EC50, lay at 0.067 nM.
Consider `CN1C(=O)CCc2c1ccc(-c1n[nH]cc1CC1CCN(S(=O)(=O)c3ccnn3C)CC1)c2F`, for which the figures for the half-maximal effective concentration (EC50) in series [1] and in series [2] were 0.704 nM and 0.014 nM, respectively.
On the same counts, the results for `CC(=O)N1CCC([C@@H](C)c2c[nH]nc2-c2ccc3c(c2F)CCC(=O)N3C)CC1` (single isomer, unassigned) are 0.074 nM and 0.012 nM.
As for `CN1C(=O)CCc2c1ccc(-c1n[nH]cc1CC1CCN(C(=O)c3ccnn3C)CC1)c2F`, the EC50 in series [1] came to 0.076 nM.

For the origin of these results see ChEMBL document CHEMBL5726546, “Dihydroquinoline pyrazolyl compounds” (2017).
